# Measured values as given in US5053070A, “Pyrimidine derivatives, preparation processes thereof, herbicide containing the same, and herbicidal compositions containing the same along with other active ingredient” (Mitsui Toatsu Chemicals, Incorporated, priority 1988, dated 1991).
# What was measured:
# [1] = tested on: ALS (acetolactate syntase); assay: ALS enzyme assay (Test 1); format: biochemical, pea; details: 1,000 ppm (0.5 mg/0.5 ml)
# Method in brief: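 Partially purified ALS from dark-grown pea and barnyardgrass seedlings incubated 1 h at 30° C with pyruvate, TPP, MgCl2 and FAD. Compounds tested at 1,000 ppm (0.5 mg/0.5 ml). Acetoin formed detected colorimetrically at 525 nm via creatine/α-naphthol, relative to blank and acid-stopped controls.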
# [2] = tested on: barnyardgrass; assay: Upland soil application test (Test 2); format: in vivo; details: 30 g ai/a, soil spray before emergence, 30 days later
# Method in brief: (§1)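 Weeds are grown from seed incorporated in upland field soil under greenhouse conditions and treated pre-emergence, one day after sowing, with a water-diluted wettable powder of each compound. Effect is scored after 30 days from air-dried weight relative to untreated pots.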
# [3] = tested on: common lambsquarters; assay: Upland soil application test (Test 2); format: in vivo; details: 30 g ai/a, soil spray before emergence, 30 days later
# Method in brief: as §1
# [4] = tested on: large crabgrass; assay: Upland soil application test (Test 2); format: in vivo; details: 30 g ai/a, soil spray before emergence, 30 days later
# Method in brief: as §1
# [5] = tested on: redroot pigweed; assay: Upland soil application test (Test 2); format: in vivo; details: 30 g ai/a, soil spray before emergence, 30 days later
# Method in brief: as §1
# [6] = tested on: cotton; assay: Upland soil application test (Test 2), crop injury; format: in vivo; details: 30 g ai/a, soil spray before emergence, 30 days later
# Method in brief: (§2)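 Pre-emergence test in upland soil pots with weed seeds mixed into the soil; one day after seeding, wettable-powder formulation diluted in water and sprayed onto the soil surface at 10 l per are. Damage scored 30 days later from air-dried weight relative to untreated pots.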
# [7] = tested on: peanut; assay: Upland soil application test (Test 2), crop injury; format: in vivo; details: 30 g ai/a, soil spray before emergence, 30 days later
# Method in brief: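 Pre-emergence soil spray, greenhouse. Weed seeds mixed through upland soil; crops sown alongside. Day 1 post-sowing: wettable-powder formulation, water-diluted, applied at 10 l/are by pressure ULV sprayer. Read at 30 days as air-dried weight vs untreated pots, scored on a graded damage scale.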
# [8] = tested on: soybean; assay: Upland soil application test (Test 2), crop injury; format: in vivo; details: 30 g ai/a, soil spray before emergence, 30 days later
# Method in brief: as §2
# [9] = tested on: cotton; assay: Upland foliar application test (Test 3), crop injury; format: in vivo; details: 30 g ai/a, foliar spray at 2-3 leaves, 30th day
# Method in brief: (§3)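 Foliar post-emergence spray: diluted emulsifiable formulation applied at 5 l/are by pressure ULV sprayer once plants in upland-soil greenhouse pots reached 2-3 leaves. Degree of weed damage and crop injury rated on day 30 post-application.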
# [10] = tested on: peanut; assay: as above; format: in vivo; details: 30 g ai/a, foliar spray at 2-3 leaves, 30th day
# Method in brief: as §3
# [11] = tested on: soybean; assay: as above; format: in vivo; details: 30 g ai/a, foliar spray at 2-3 leaves, 30th day
# Method in brief: as §3
# [12] = tested on: Sagittaria pygmaea; assay: Treatment of soil under submerged condition, post-emergence (Test 5); format: in vivo; details: 30 g ai/a granule, 30 days later
# Method in brief: (§4)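 Post-emergence paddy test: granules of a predetermined amount of test composition go onto flooded pots when barnyardgrass has two leaves. Transplanted rice seedlings (2–3 leaf stage) share the pots with sown weeds. Damage and crop injury are rated at 30 days.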
# [13] = tested on: barnyardgrass; assay: as above; format: in vivo; details: 30 g ai/a granule, post-emergence (barnyardgrass two-leaf stage), 30 days later
# Method in brief: as §4
# [14] = tested on: bulrush; assay: as above; format: in vivo; details: 30 g ai/a granule, 30 days later
# Method in brief: as §4
# [15] = tested on: rice; assay: Treatment of soil under submerged condition, post-emergence (Test 5), injury; format: in vivo; details: 30 g ai/a granule, 30 days later
# Method in brief: as §4
# [16] = tested on: narrowleaf waterplantain; assay: Petri dish test (Test 6); format: in vivo; details: 336 h; seeds on filter paper, 25° C., 14 days; read-out: I80 (ppm)
# Method in brief: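 Narrowleaf waterplantain seeds placed on filter paper pre-treated with compound in acetone (solvent air-dried) in 9 cm Petri dishes with 10 ml water, grown at 25° C in light. Growth was scored after fourteen days as degree of damage against an untreated group.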
SMILES,Inhibitory activity (%) Pea [1],Herbicidal effects Barnyardgrass [2],Herbicidal effects Common lambsquarters [3],Herbicidal effects Large crabgrass [4],Herbicidal effects Redroot pigweed [5],Injury Cotton [6],Injury Peanut [7],Injury Soybean [8],Injury Cotton [9],Injury Peanut [10],Injury Soybean [11],Herbicidal effects Sagittaria Pygmaea [12],Herbicidal effects Barnyardgrass [13],Herbicidal effects Bulrush [14],Injury Rice [15],IC80 [16]
COc1cc(OC)nc(Oc2ccccc2C=NOCC=Cc2cccc(Cl)c2Cl)n1 [compound 41],0%,5 (0-5 (Death)),4 (6-10 (Severe damages)),5 (0-5 (Death)),5 (0-5 (Death)),0 (91-100 (No damages)),0 (91-100 (No damages)),0 (91-100 (No damages)),0 (91-100 (No damages)),0 (91-100 (No damages)),0 (91-100 (No damages)),4 (6-10 (Severe damages)),5 (0-5 (Death)),4 (6-10 (Severe damages)),0 (91-100 (No damages)),2 µg/mL
COc1cc(OC)nc(Oc2ccccc2C=NOCC#Cc2ccccc2)n1 [compound 42],0%,5 (0-5 (Death)),4 (6-10 (Severe damages)),4 (6-10 (Severe damages)),3 (11-40 (Medium damages)),0 (91-100 (No damages)),0 (91-100 (No damages)),0 (91-100 (No damages)),0 (91-100 (No damages)),0 (91-100 (No damages)),0 (91-100 (No damages)),5 (0-5 (Death)),5 (0-5 (Death)),4 (6-10 (Severe damages)),0 (91-100 (No damages)),17 µg/mL
